In ChEMBL document CHEMBL1155160, “Novel complex class 1 integron bearing an ISCR1 element in an Escherichia coli isolate carrying the blaCTX-M-14 gene” (2007):
Values after ≈ are worked out from the molar mass of the structure shown.

Test system: Escherichia coli
Experiment: Antimicrobial activity against Escherichia coli AJE0508 isolate carrying ISCR1 element related blaCTX-M-14 gene by agar dilution method
Assay type: functional

Row | SMILES | MIC
1 | CC1(C)S[C@@H]2[C@H](NC(=O)[C@H](N)c3ccccc3)C(=O)N2[C@H]1C(=O)O [AMPICILLIN] | > 256 µg/mL
2 | C[C@H]1[C@H](NC(=O)/C(=N\OC(C)(C)C(=O)O)c2csc(N)n2)C(=O)N1S(=O)(=O)O [AZTREONAM] | 64 µg/mL (≈ 147 µM)
3 | CO/N=C(\C(=O)N[C@@H]1C(=O)N2C(C(=O)O)=C(COC(C)=O)CS[C@H]12)c1csc(N)n1 [CEFOTAXIME] | 64 µg/mL (≈ 141 µM)
4 | CO[C@@]1(NC(=O)Cc2cccs2)C(=O)N2C(C(=O)O)=C(COC(N)=O)CS[C@@H]21 [CEFOXITIN] | 8 µg/mL (≈ 18.7 µM)
5 | CC(C)(O/N=C(\C(=O)N[C@@H]1C(=O)N2C(C(=O)[O-])=C(C[n+]3ccccc3)CS[C@H]12)c1csc(N)n1)C(=O)O [CEFTAZIDIME] | 32 µg/mL (≈ 58.5 µM)
6 | C[C@@H](O)[C@H]1C(=O)N2C(C(=O)O)=C(SCCNC=N)C[C@H]12 [IMIPENEM ANHYDROUS] | 0.1 µg/mL (≈ 0.334 µM)
